Experiment [1] has as its system MOOVA (Monochoria). Nature of the experiment: Postemergence weed control under flooded paddy conditions. It is filed as in vivo, Monochoria vaginalis. Particulars: postemergence weeds, 3-4 weeks after treatment. The text has this: Results of herbicide evaluation are expressed on a rating scale (0-9). The scale is based upon a visual observation of plant stand, vigor, malformation, size, chlorosis and overall plant appearance as compared with a control.
Plastic containers containing weeds which are 3 to 5 cm tall and rice seedlings at the 1.5 to 2.5 leaf stage are flooded with water. The water is maintained at 1.5 to 3 cm above the soil surface for the duration of the experiment. Test compounds are applied as aqueous/ acetone mixtures 50/50 v/v directly into the flood water to provide the equivalent of about 0.0313 to 0.500 kg/ha of active ingredient. The treated containers are placed on greenhouse benches and cared for in accordance with conventional greenhouse procedures. Three to four weeks after treatment, the test is terminated and each container is examined and herbicidal effect rated according to the rating system provided in Example 37. The compounds evaluated are reported by compound number given in Example 37.

Experiment [2] has as its system ECHORC (Watergrass (Calif.)). Nature of the experiment: Preemergence weed control under flooded paddy conditions. It counts as in vivo, Echinochloa oryzoides. Particulars: rated 3-4 weeks after treatment. An outline of the steps: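 Seeds or propagules sown in silt loam kept flooded 1.5-3 cm; compounds in 50/50 acetone/water pipetted into flood water at about 0.0313 to 0.500 kg/ha. Greenhouse; visual 0-9 rating versus untreated control 3-4 weeks after treatment.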

Experiment [3] deals with CYPSE (Flatsedge). Described as above. It is filed as in vivo, Cyperus serotinus. Particulars: rated 3-4 weeks after treatment. An outline of the steps:
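Seeds or propagules sown in top 0.5 cm of silt loam soil, flooded 1.5 to 3 cm above surface throughout. Compound in 50/50 v/v aqueous/acetone pipetted into flood water at about 0.0313 to 0.500 kg/ha. Visual 0-9 rating versus control after three to four weeks in greenhouse.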

Experiment [4] deals with CHEAL (Lambsquarters, Common). Nature of the experiment: Preemergence herbicidal evaluation. Conditions: rated 4-5 weeks after treatment. It is filed as in vivo, Chenopodium album. Put shortly:
(§1)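 Scores (0–9) reflect visual comparison with control plants for stand, vigor, malformation, size and chlorosis. Compound was applied to the soil after sowing, before emergence, as an aqueous acetone spray (about 0.0156–0.500 kg/ha), and cups were kept in a greenhouse for 4–5 weeks.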

Experiment [5] relates to ECHCG (Barnyardgrass). Kind of experiment: Postemergence herbicidal evaluation. It is filed as in vivo, Echinochloa crus-galli. An outline of the steps: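 ~2-wk seedlings; postemergence spray, 40 psi; vehicle 1:1 acetone:water + 0.5% Tween 20; rate ≈0.0156–0.500 kg/ha; greenhouse hold; scored 4–5 wk after treatment, 0–9 scale vs control; repeat tests averaged.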
Experiment [6] has as its system ORYSAT (Rice, Tebonnet). Kind of experiment: Preemergence herbicidal evaluation. It is filed as in vivo, Oryza sativa, (L.) Tebonnet. Particulars: rated 4-5 weeks after treatment. An outline of the steps:
as §1

[7] abbreviates: postemergence, rate 0.0625 kg/ha.

Take `CCOC(=O)CN1C(=O)C(F)SC1=Nc1cc(-n2c(=O)cc(C(F)(F)F)n(C)c2=O)c(F)cc1Cl` (stereo not shown) [Compound 11, Ethyl 2-{{2-chloro-5-[3,6-dihydro-3-methyl-2,6-dioxo-4-(trifluoromethyl)-1(2H)-pyrimidinyl]-4-fluorophenyl}imino}-5-fluoro-4-oxo-3-thiazolidineacetate]: the “Herbicidal rating MOOVA” value in experiment [1] (rate 0.0313 kg/ha) amounted to 0.0; in experiment [1] (rate 0.0625 kg/ha), 1.0; in experiment [1] (rate 0.1250 kg/ha), 4.0; in experiment [1] (rate 0.2500 kg/ha), 7.0. Moreover, the “Herbicidal rating ECHORC” value is 1.0 in experiment [2] (0.0313 kg/ha), 2.0 in experiment [2] (0.0625 kg/ha), 2.0 in experiment [2] (0.1250 kg/ha) and 3.0 in experiment [2] (0.2500 kg/ha). The “Herbicidal rating CYPSE” value in experiment [3] (0.0313 kg/ha), in experiment [3] (0.0625 kg/ha), in experiment [3] (0.1250 kg/ha) and in experiment [3] (0.2500 kg/ha) was 0.0 throughout. In addition, the “CHEAL preemergence herbicidal rating” value in experiment [4] (rate 0.0156 kg/ha) is reported as 7.5; in experiment [4] (rate 0.0313 kg/ha), 9.0; in experiment [4] (rate 0.0625 kg/ha), 9.0; in experiment [4] (rate 0.1250 kg/ha) it was 9.0; in experiment [4] (rate 0.2500 kg/ha), 9.0. For the same molecule, the ECHCG herbicidal rating in experiment [5] (postemergence, rate 0.0156 kg/ha) is on record as 0.0; in experiment [5] (postemergence, rate 0.0313 kg/ha), 0.0; in experiment [5] (setting [7]), 6.0; in experiment [5] (postemergence, rate 0.1250 kg/ha), 7.0. Moreover, the “ORYSAT preemergence herbicidal rating” value in experiment [6] (rate 0.0156 kg/ha) stood at 0.0; in experiment [6] (rate 0.0313 kg/ha), 0.0; in experiment [6] (rate 0.0625 kg/ha), 0.0; in experiment [6] (rate 0.1250 kg/ha), 2.0; in experiment [6] (rate 0.2500 kg/ha), 4.0.

Regarding `CCOC(=O)CN1C(=O)C(CC(=O)OCc2ccccc2)OC1=Nc1cc(-n2c(=O)cc(C(F)(F)F)n(C)c2=O)c(F)cc1Cl` (stereo not shown) [Compound 40, 2-{{2-Chloro-5-[3,6-dihydro-3-methyl-2,6-dioxo-4-(trifluoromethyl)-1(2H)-pyrimidinyl]-4-fluorophenyl}imino}-4-oxo-3,5-oxazolidinediacetic acid, 5-benzyl ethyl ester], the “Herbicidal rating MOOVA” value in experiment [1] (rate 0.0313 kg/ha), in experiment [1] (rate 0.0625 kg/ha), in experiment [1] (rate 0.1250 kg/ha) and in experiment [1] (rate 0.2500 kg/ha) was 9.0 throughout. The “Herbicidal rating ECHORC” value came out at 5.0 in experiment [2] (0.0313 kg/ha), 5.0 in experiment [2] (0.0625 kg/ha), 5.0 in experiment [2] (0.1250 kg/ha) and 9.0 in experiment [2] (0.2500 kg/ha). Further, the “Herbicidal rating CYPSE” value came to 0.0 in experiment [3] (0.0313 kg/ha), 0.0 in experiment [3] (0.0625 kg/ha), 0.0 in experiment [3] (0.1250 kg/ha) and 6.0 in experiment [3] (0.2500 kg/ha). In addition, the “Preemergence herbicidal rating CHEAL” value in experiment [4] (rate 0.0313 kg/ha), in experiment [4] (rate 0.0625 kg/ha), in experiment [4] (rate 0.1250 kg/ha) and in experiment [4] (rate 0.2500 kg/ha) was 9.0 each time. The figures for the “Postemergence herbicidal rating ECHCG” value in experiment [5] (Rate 0.0158 kg/ha), in experiment [5] (Rate 0.0315 kg/ha) and in experiment [5] (Rate 0.0630 kg/ha) were 1.0, 7.0 and 9.0, respectively. For the same molecule, the “Preemergence herbicidal rating ORYSAT” value came out at 0.0 in experiment [6] (rate 0.0313 kg/ha), 0.0 in experiment [6] (rate 0.0625 kg/ha), 0.0 in experiment [6] (rate 0.1250 kg/ha) and 1.0 in experiment [6] (rate 0.2500 kg/ha).

In the case of `CCOC(=O)[C@H](C)N1C(=O)CSC1=Nc1cc(-n2c(=O)cc(C(F)(F)F)n(C)c2=O)c(F)cc1Cl` [Compound 76, Ethyl 2-{{2-chloro-5-[3,6-dihydro-3-methyl-2,6-dioxo-4-(trifluoromethyl)-1(2H)-pyrimidinyl]-4-fluorophenyl}imino}-α-methyl-4-oxo-3-thiazolidineacetate, L-], the “ECHORC herbicidal effect rating” value in experiment [2] (0.0313 kg/ha) is listed as 4.0; in experiment [2] (0.0625 kg/ha) it was 7.0; in experiment [2] (0.1250 kg/ha), 9.0; in experiment [2] (0.2500 kg/ha), 9.0. Besides, the “CYPSE herbicidal effect rating” value stood at 2.0 in experiment [3] (0.0313 kg/ha), 2.0 in experiment [3] (0.0625 kg/ha), 2.0 in experiment [3] (0.1250 kg/ha) and 3.0 in experiment [3] (0.2500 kg/ha). Moreover, the “Preemergence herbicidal rating CHEAL” value in experiment [4] (rate 0.0156 kg/ha), in experiment [4] (rate 0.0313 kg/ha), in experiment [4] (rate 0.0625 kg/ha), in experiment [4] (rate 0.1250 kg/ha) and in experiment [4] (rate 0.2500 kg/ha) was 9.0 each time. Moreover, the ECHCG herbicidal rating in experiment [5] (postemergence, rate 0.0158 kg/ha) was determined as 1.0; in experiment [5] (postemergence, rate 0.0315 kg/ha) it was 1.0; in experiment [5] (postemergence, rate 0.0630 kg/ha), 2.0. In addition, the “Preemergence herbicidal rating ORYSAT” value in experiment [6] (rate 0.0156 kg/ha) was found to be 0.0; in experiment [6] (rate 0.0313 kg/ha), 0.0; in experiment [6] (rate 0.0625 kg/ha), 3.0; in experiment [6] (rate 0.1250 kg/ha), 4.0; in experiment [6] (rate 0.2500 kg/ha), 5.0.

As to `CCCN1C(=O)CSC1=Nc1cc(-n2c(=O)cc(C(F)(F)F)n(C)c2=O)c(F)cc1Cl` [Compound 171, 3-{4-Chloro-2-fluoro-5-[(4-oxo-3-propyl-2-thiazolidinylidene)amino]phenyl}-1-methyl-6-(trifluoromethyl)-2,4 (1H, 3H)-pyrimidinedione], the “herbicidal effect rating, ECHORC” value in experiment [2] (0.0313 kg/ha) is on record as 8.0; in experiment [2] (0.0625 kg/ha), 9.0; in experiment [2] (0.1250 kg/ha), 9.0; in experiment [2] (0.2500 kg/ha) it was 9.0. Further, the “herbicidal effect rating, CYPSE” value in experiment [3] (0.0313 kg/ha), in experiment [3] (0.0625 kg/ha), in experiment [3] (0.1250 kg/ha) and in experiment [3] (0.2500 kg/ha) was 9.0 in each case. Besides, the “Preemergence herbicidal rating CHEAL” value in experiment [4] (0.0156 kg/ha), in experiment [4] (0.0313 kg/ha), in experiment [4] (0.0625 kg/ha), in experiment [4] (0.1250 kg/ha) and in experiment [4] (0.2500 kg/ha) was 9.0 throughout. In addition, the “Postemergence herbicidal rating ECHCG” value in experiment [5] (Rate 0.0156 kg/ha) and in experiment [5] (Rate 0.0313 kg/ha) was 4.0 throughout. Besides, the “herbicidal rating ECHCG” value in experiment [5] (setting [7]) is listed as 3.0. The “Preemergence herbicidal rating ORYSAT” value in experiment [6] (0.0156 kg/ha) is given as 2.0; in experiment [6] (0.0313 kg/ha), 4.0; in experiment [6] (0.0625 kg/ha), 5.0; in experiment [6] (0.1250 kg/ha), 6.0; in experiment [6] (0.2500 kg/ha), 8.0.

Source of the values: patent US20020137929A1, “1 - (3-heterocyclylphenyl) isothiourea, -isourea, -guanidine and -amidine herbicidal agents” (Intellectual Property Department, BASF Aktiengesellschaft, priority 1998, published 2002).
